Results on 14 compounds are retold here after US11447460B2, “Compounds and compositions for treating conditions associated with NLRP activity” (Novartis AG, priority 2016, dated 2022).

The structures appear in SMILES notation. pIC50: −log10 of the molar value.

The assay deals with IL-1β production in PMA-differentiated THP-1 cells. The assay can be described thus: IL-1β production in PMA-differentiated THP-1 cells stimulated with gramicidin (hTHP-1 assay, 2% bovine serum; Bioassays 1 and 2). The note with it: Homo sapiens, THP-1; hTHP-1 assay containing 2% bovine serum; Table 12, by Example #; read-out: Average IC50 of compounds in hTHP-1 assay. The class given is cell-based, human. In a few lines:
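PMA-differentiated THP-1 cells in 2% FBS RPMI were pre-treated with compound for 1 h, then given gramicidin 5 μM for 2 h, and supernatants were assayed to give IC50. Protocol 1: PMA 10 μg/ml 24 h, 1×10^6 cells/ml, ELISA, 1% DMSO. Protocol 2: PMA 20 ng/ml 16-18 h, 50,000 cells/well, HTRF, 0.38% DMSO.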
For the compound `CC(C)c1c(F)c(Cl)c(F)c(C(C)C)c1CC(=O)NS(=O)(=O)c1ncc(C(C)(C)O)s1` [Example 83, 2-(4-chloro-3,5-difluoro-2,6-diisopropylphenyl)-N-(5-(2-hydroxypropan-2-yl)thiazol-2-ylsulfonyl)acetamide], the pIC50 (commonly the negative decadic logarithm of the IC50, by convention in mol/L) is more than 6.00.

Regarding `CC(C)c1cnc(S(=O)(=O)NC(=O)Cc2c(C(C)C)cc(F)cc2C(C)C)s1` [Example 84, 2-(4-fluoro-2,6-diisopropylphenyl)-N-(5-isopropylthiazol-2-ylsulfonyl)acetamide], the pIC50 is 4.82 to 5.30. Then `CC(C)c1cc(OC(F)(F)F)cc(C(C)C)c1CC(=O)NS(=O)(=O)c1ncc(C(C)(C)O)s1` [Example 85, 2-(2,6-diisopropyl-4-(trifluoromethoxy)phenyl)-N-(5-(2-hydroxypropan-2-yl)thiazol-2-ylsulfonyl)acetamide], with 5.30 to 6.00. The value for `CCc1cc(F)cc(CC)c1CC(=O)NS(=O)(=O)c1ncc(C(C)(C)O)s1` [Example 86, 2-(2,6-diethyl-4-fluorophenyl)-N-(5-(2-hydroxypropan-2-yl)thiazol-2-ylsulfonyl)acetamide] was 4.82 to 5.30; that for `CC(C)(O)c1cnc(S(=O)(=O)NC(=O)Cc2cc(C(F)(F)F)ccc2Cl)s1` [Example 87, 2-(2-chloro-5-(trifluoromethyl)phenyl)-N-(5-(2-hydroxypropan-2-yl)thiazol-2-ylsulfonyl)acetamide] was 4.22 to 4.82.

Take `COc1c(Cl)cc(Cl)cc1CC(=O)NS(=O)(=O)c1ncc(C(C)(C)O)s1` [Example 88, 2-(3,5-dichloro-2-methoxyphenyl)-N-(5-(2-hydroxypropan-2-yl)thiazol-2-ylsulfonyl)acetamide]: the negative logarithm of the IC50 (pIC50) is 4.22 to 4.82. Then `CC(C)c1cc(F)cc(C(C)C)c1CC(=O)NS(=O)(=O)c1ncc(C(C)(C)O)s1` [Example 89, 2-(4-Fluoro-2,6-diisopropylphenyl)-N-(5-(2-hydroxypropan-2-yl)thiazol-2-ylsulfonyl)acetamide], with 5.30 to 6.00. The value for `CC(C)c1cc(F)cc(C(C)C)c1CC(=O)NS(=O)(=O)c1ncc(CO)s1` [Example 91, 2-(4-Fluoro-2,6-diisopropylphenyl)-N-(5-(hydroxymethyl)thiazol-2-ylsulfonyl)acetamide] was 4.22 to 4.82; that for `CC(C)c1cc(F)cc(C(C)C)c1CC(=O)NS(=O)(=O)c1ncc(C(C)O)s1` (centres unmarked) [Example 92, 2-(4-fluoro-2,6-diisopropylphenyl)-N-(5-(1-hydroxyethyl)thiazol-2-ylsulfonyl)acetamide] was 5.30 to 6.00. The value for `CC(C)c1cc(C#N)cc(C(C)C)c1CC(=O)NS(=O)(=O)c1ncc(C(C)O)s1` (centres unmarked) [Example 93, 2-(4-cyano-2,6-diisopropylphenyl)-N-(5-(1-hydroxyethyl)thiazol-2-ylsulfonyl)acetamide] was 5.30 to 6.00. With `CC(C)c1cc(F)cc(C(C)C)c1CC(=O)NS(=O)(=O)c1ccc(C(C)(C)O)c(CO)c1` [Example 94, 2-(4-fluoro-2,6-diisopropylphenyl)-N-(3-(hydroxymethyl)-4-(2-hydroxypropan-2-yl)phenylsulfonyl)acetamide], the negative logarithm of the IC50 (pIC50) was 5.30 to 6.00. Then `CC(C)c1cc(C#N)cc(C(C)C)c1CC(=O)NS(=O)(=O)c1ccc(C(C)(C)O)c(CO)c1` [Example 95, 2-(4-cyano-2,6-diisopropylphenyl)-N-(3-(hydroxymethyl)-4-(2-hydroxypropan-2-yl)phenylsulfonyl)acetamide], with 5.30 to 6.00; and `CC(C)c1cc(F)cc(C(C)C)c1CC(=O)NS(=O)(=O)c1ncc(C(C)CO)s1` (centres unmarked) [Example 96, 2-(4-Fluoro-2,6-diisopropylphenyl)-N-(5-(1-hydroxypropan-2-yl)thiazol-2-ylsulfonyl)acetamide], with 4.82 to 5.30. The value for `CC(C)c1cc(F)cc(C(C)C)c1CC(=O)NS(=O)(=O)c1ncc(CCO)s1` [Example 97, 2-(4-fluoro-2,6-diisopropylphenyl)-N-(5-(2-hydroxyethyl)thiazol-2-ylsulfonyl)acetamide] was 4.82 to 5.30.
